In patent US9326513B2, “Fungicidal compositions” (Syngenta Participations AG, priority 2011, dated 2016):

Legend:
[1] = system: Blumeria graminis f. sp. tritici (Erysiphe graminis f. sp. tritici); test: Blumeria graminis f. sp. tritici / wheat / leaf disc preventative (powdery mildew on wheat); format: in vivo; settings: foliar, compared to untreated control leaf disks, read-out: disease control
Procedure, shortened: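 Preventative leaf-disc test: compound (200 ppm) was sprayed onto cv. Kanzler wheat segments, which were dusted with conidia from infected plants 1 day after application. After incubation at 20° C and 60% rh, disease control relative to untreated segments was rated 6-8 days after application.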

[2] = system: Puccinia recondita f. sp. tritici; test: Puccinia recondita f. sp. tritici / wheat / leaf disc preventative (brown rust); format: in vivo; settings: foliar, compared to untreated control leaf disks, read-out: disease control
Source text: Puccinia recondita f. sp. tritici/Wheat/Leaf Disc Preventative (Brown Rust) Wheat leaf segments cv. Kanzler were placed on agar in multiwell plates (24-well format) and sprayed with the formulated test compound diluted in water. The leaf disks were inoculated with a spore suspension of the fungus 1 day after application.

[3] = system: Monographella nivalis (syn. Microdochium nivale, Fusarium nivale); test: Monographella nivalis (snow mould, foot rot of cereals), PDB microtiter plate, visual after 72 hrs; format: cell-based; settings: applied alone
Botrytis cinerea = Botrytis cinerea (gray mould), PDB microtiter plate, visual after 72 hrs; format: cell-based; settings: Botrytis cinerea, alone
Septoria tritici [4] = test: Septoria tritici (leaf blotch), PDB microtiter plate, visual after 72 hrs; format: cell-based; settings: Zymoseptoria tritici, single compound
[5] = system: Mycosphaerella arachidis (y. Cercospora arachidicola); test: Mycosphaerella arachidis (brown leaf spot of groundnut), PDB microtiter plate, visual after 5-6 days; format: cell-based; settings: single compound
Septoria tritici [6] = test: Septoria tritici (leaf blotch), YBG microtiter plate, photometric growth inhibition after 6 days; format: cell-based; settings: Zymoseptoria tritici, 144 h, solo
Sclerotinia sclerotiorum = Sclerotinia sclerotiorum on oilseed rape, preventive treatment; format: in vivo; settings: solo, 1 day preventive, 11 days after application
Source text: In the following Tables ‘Activity (%)’ means the assessed experimental activity (% disease control in this test when compared to untreated control leaf disks under the same conditions, which show extensive disease development) and “P” is the expected value calculated (expected) activity according to the COLBY formula (see above). The column headed ‘S?’ indicates whether or not synergy was observed, with ‘y’ meaning that synergy was observed.
Sclerotinia sclerotiorum on Oilseed Rape, Preventive Treatment
The compound activity was tested under 1 day preventive conditions. Oilseed rape plants with 3 unfolded leafs were sprayed with a track sprayer and 200 I/ha spray volume with the test compounds, either solo or in tankmix as shown in the table below.
1 day after application the plants were infested with a solution of Sclerotinia sclerotiorum mycelium. The plants were placed under plastic hoods and high humidity conditions in a climate chamber at 14 h day/10 h night cycle and 15° C. Disease infestation was evaluated visually 11 days after application and average activity calculated in relation to disease severity on untreated check.

Sphaerotheca fuliginea = Sphaerotheca fuliginea (powdery mildew) on cucumber, preventive treatment; format: in vivo; settings: solo, 2 days preventive, 10 days after application
Source text: In the following Tables 'Activity (%)' means the assessed experimental activity (% disease control in this test when compared to untreated control leaf disks under the same conditions, which show extensive disease development) and “P” is the expected value calculated (expected) activity according to the COLBY formula (see above). The column headed 'S?' indicates whether or not synergy was observed, with 'y' meaning that synergy was observed. Sphaerotheca fuliqinea (Powdery Mildew) on Cucumber, Preventive Treatment […] Cucumber plants with unfolded cotyledons were sprayed with a roomsprayer and 40 ml/4 plants spray volume with the test compounds, either solo or in […] shown in the table below. 2 days after application the plants were infested with spores of Sphaerotheca fuliginea.

[7] = system: Fusarium graminearum and Fusarium culmorum; format: in vivo; settings: solo, 200 g a.i./ha; wheat, 1 day preventive, 9 days after application
[8] = system: Phakopsora pachyrhizi (triazole tolerant soybeanrust strain); test: Phakopsora pachyrhizi on soybean, preventive treatment; format: in vivo; settings: solo, soybean leaf discs, 1 day preventive, 11 days after application
Septoria tritici [9] = test: Septoria tritici on wheat, preventive treatment; format: in vivo; settings: solo, wheat Riband, 1 day preventive, 18 days after application

Q: With `CCN(C)/C=N/c1cc(Br)c(OC(C)c2cc(F)cc(F)c2)nc1C` (centres unmarked) [Q.113] as the molecule, how does the pest or weed control at 200 ppm [1] read?
A: Its pest or weed control at 200 ppm is ≥ 50%.

Q: What about the pest or weed control at 200 ppm [2] of the same molecule?
A: The pest or weed control at 200 ppm was ≥ 50%.

Q: And the inhibition at 0.00390625 ppm ([3]; Monographella nivalis, 0.00390625 ppm)?
A: The inhibition at 0.00390625 ppm was 0%.

Q: And the inhibition at 0.0078125 ppm ([3]; Monographella nivalis, 0.0078125 ppm)?
A: The inhibition at 0.0078125 ppm was 0%.

Q: And the inhibition at 0.015625 ppm ([3]; Monographella nivalis, 0.015625 ppm)?
A: The inhibition at 0.015625 ppm was 0%.

Q: And the inhibition at 0.03125 ppm ([3]; Monographella nivalis, 0.03125 ppm)?
A: Its inhibition at 0.03125 ppm is 0%.

Q: What about the inhibition at 0.0625 ppm ([3]; Monographella nivalis, 0.0625 ppm) of the same molecule?
A: The inhibition at 0.0625 ppm was 0%.

Q: And the inhibition at 0.125 ppm ([3]; Monographella nivalis, 0.125 ppm)?
A: The inhibition at 0.125 ppm was 0%.

Q: What about the inhibition at 0.25 ppm ([3]; Monographella nivalis, 0.25 ppm) of the same molecule?
A: Its inhibition at 0.25 ppm is 0%.

Q: And the inhibition at 2 ppm ([3]; Monographella nivalis, 2 ppm)?
A: Its inhibition at 2 ppm is 70%.

Q: And the inhibition at 2 ppm ([3]; Monographella nivalis, rate 2 ppm)?
A: Its inhibition at 2 ppm is 70%.

Q: And the “Activity (%)” value ([3]; 0.5 ppm)?
A: The value was 20%.

Q: And the “Activity (%)” value ([3]; 1 ppm)?
A: The value was 20%.

Q: And the “Activity (%)” value ([3]; rate 0.125 ppm)?
A: The value was 2%.

Q: And the “Activity (%)” value ([3]; rate 0.25 ppm)?
A: Its value is 2%.

Q: What about the “Activity (%)” value ([3]; rate 0.5 ppm) of the same molecule?
A: The value was 20%.

Q: What about the “Activity (%)” value ([3]; rate 1 ppm) of the same molecule?
A: Its value is 20%.

Q: What about the inhibition at 0.00390625 ppm (Botrytis cinerea; rate 0.00390625 ppm) of the same molecule?
A: Its inhibition at 0.00390625 ppm is 0%.

Q: What about the inhibition at 0.0078125 ppm (Botrytis cinerea; rate 0.0078125 ppm) of the same molecule?
A: The inhibition at 0.0078125 ppm was 0%.

Q: What about the inhibition at 0.015625 ppm (Botrytis cinerea; rate 0.015625 ppm) of the same molecule?
A: Its inhibition at 0.015625 ppm is 0%.

Q: What about the inhibition at 0.03125 ppm (Botrytis cinerea; rate 0.03125 ppm, read-out: Activity (%)) of the same molecule?
A: Its inhibition at 0.03125 ppm is 0%.

Q: And the inhibition at 0.0625 ppm (Botrytis cinerea; rate 0.0625 ppm, read-out: Activity (%))?
A: Its inhibition at 0.0625 ppm is 0%.

Q: What about the inhibition at 0.125 ppm (Botrytis cinerea; rate 0.125 ppm) of the same molecule?
A: The inhibition at 0.125 ppm was 0%.

Q: What about the inhibition at 0.25 ppm (Botrytis cinerea; rate 0.25 ppm) of the same molecule?
A: The inhibition at 0.25 ppm was 0%.

Q: What about the inhibition at 0.5 ppm (Botrytis cinerea; rate 0.5 ppm) of the same molecule?
A: Its inhibition at 0.5 ppm is 0%.

Q: What about the inhibition at 1 ppm (Botrytis cinerea; rate 1 ppm) of the same molecule?
A: Its inhibition at 1 ppm is 0%.

Q: And the inhibition at 2 ppm (Botrytis cinerea; rate 2 ppm)?
A: Its inhibition at 2 ppm is 0%.

Q: And the inhibition at 0.00390625 ppm (Septoria tritici [4]; 0.00390625 ppm)?
A: Its inhibition at 0.00390625 ppm is 0%.

Q: What about the inhibition at 0.0078125 ppm (Septoria tritici [4]; 0.0078125 ppm) of the same molecule?
A: Its inhibition at 0.0078125 ppm is 0%.

Q: And the inhibition at 0.015625 ppm (Septoria tritici [4]; 0.015625 ppm)?
A: Its inhibition at 0.015625 ppm is 0%.

Q: And the inhibition at 0.03125 ppm (Septoria tritici [4]; 0.03125 ppm)?
A: Its inhibition at 0.03125 ppm is 0%.

Q: What about the inhibition at 0.0625 ppm (Septoria tritici [4]; 0.0625 ppm) of the same molecule?
A: The inhibition at 0.0625 ppm was 0%.

Q: And the inhibition at 0.125 ppm (Septoria tritici [4]; 0.125 ppm)?
A: Its inhibition at 0.125 ppm is 0%.

Q: What about the inhibition at 0.25 ppm (Septoria tritici [4]; 0.25 ppm, read-out: Activity (%)) of the same molecule?
A: The inhibition at 0.25 ppm was 0%.

Q: And the inhibition at 0.5 ppm (Septoria tritici [4]; 0.5 ppm)?
A: Its inhibition at 0.5 ppm is 0%.

Q: And the inhibition at 1 ppm (Septoria tritici [4]; 1 ppm)?
A: Its inhibition at 1 ppm is 0%.

Q: And the inhibition at 2 ppm (Septoria tritici [4]; 2 ppm)?
A: Its inhibition at 2 ppm is 0%.

Q: What about the inhibition at 0.0078125 ppm ([5]; Mycosphaerella arachidis, 0.0078125 ppm, read-out: Activity (%)) of the same molecule?
A: Its inhibition at 0.0078125 ppm is 0%.

Q: And the inhibition at 0.015625 ppm ([5]; Mycosphaerella arachidis, 0.015625 ppm, read-out: Activity (%))?
A: Its inhibition at 0.015625 ppm is 0%.

Q: What about the inhibition at 0.25 ppm ([5]; Mycosphaerella arachidis, 0.25 ppm, read-out: Activity (%)) of the same molecule?
A: The inhibition at 0.25 ppm was 70%.

Q: What about the inhibition at 0.5 ppm ([5]; Mycosphaerella arachidis, 0.5 ppm, read-out: Activity (%)) of the same molecule?
A: The inhibition at 0.5 ppm was 70%.

Q: What about the “Activity (%)” value ([5]; 0.125 ppm) of the same molecule?
A: Its value is 50%.

Q: What about the inhibition of growth at 0.0195312 ppm (Septoria tritici [6]; rate 0.01953125 ppm) of the same molecule?
A: The inhibition of growth at 0.0195312 ppm was 15%.

Q: What about the inhibition of growth at 0.0390625 ppm (Septoria tritici [6]; rate 0.0390625 ppm) of the same molecule?
A: Its inhibition of growth at 0.0390625 ppm is 28%.

Q: And the inhibition of growth at 0.078125 ppm (Septoria tritici [6]; rate 0.078125 ppm)?
A: The inhibition of growth at 0.078125 ppm was 31%.

Q: And the inhibition of growth at 0.15625 ppm (Septoria tritici [6]; rate 0.15625 ppm, read-out: Activity)?
A: Its inhibition of growth at 0.15625 ppm is 42%.

Q: What about the inhibition of growth at 0.3125 ppm (Septoria tritici [6]; rate 0.3125 ppm) of the same molecule?
A: Its inhibition of growth at 0.3125 ppm is 34%.

Q: What about the inhibition of growth at 0.625 ppm (Septoria tritici [6]; rate 0.625 ppm) of the same molecule?
A: The inhibition of growth at 0.625 ppm was 39%.

Q: And the inhibition of growth at 1.25 ppm (Septoria tritici [6]; rate 1.25 ppm)?
A: Its inhibition of growth at 1.25 ppm is 42%.

Q: And the inhibition of growth at 10 ppm (Septoria tritici [6]; rate 10 ppm)?
A: Its inhibition of growth at 10 ppm is 63%.

Q: What about the Activity (Sclerotinia sclerotiorum; rate 25 ppm) of the same molecule?
A: The Activity was 2%.

Q: And the Activity (Sclerotinia sclerotiorum; rate 50 ppm)?
A: Its Activity is 2%.

Q: What about the Activity (Sclerotinia sclerotiorum; rate 100 ppm) of the same molecule?
A: Its Activity is 39%.

Q: What about the Activity (Sphaerotheca fuliginea; rate 0.2 ppm) of the same molecule?
A: Its Activity is 0%.

Q: What about the Activity (Sphaerotheca fuliginea; rate 0.6 ppm) of the same molecule?
A: The Activity was 0%.

Q: And the Activity (Sphaerotheca fuliginea; rate 2 ppm)?
A: The Activity was 0%.

Q: What about the Activity [7] of the same molecule?
A: Its Activity is 23%.

Q: And the Activity ([8]; rate 0.5 g ai/ha)?
A: The Activity was 1%.

Q: What about the Activity ([8]; rate 2 g ai/ha) of the same molecule?
A: Its Activity is 25%.

Q: And the Activity (Septoria tritici [9]; 1 g a.i./ha)?
A: Its Activity is 1%.

Q: And the Activity (Septoria tritici [9]; 3 g a.i./ha)?
A: The Activity was 0%.

Q: And the Activity (Septoria tritici [9]; 81 g a.i./ha)?
A: The Activity was 53%.
